The text below walks through data of patent US20250339391A1, “METHODS FOR EFFECTIVE MANAGEMENT OF PAIN” (South Rampart Pharma, Inc., priority 2024, published 2025).

One series relates to male Sprague-Dawley rats. Description: Neuropharmacological profile (modified Irwin/FOB) in Sprague-Dawley rats (GLP). In kind it is in vivo, rat. On the procedure: Any potential neuropharmacological effects of orally administered SRP-001 in rats were assessed in three groups of eight male Sprague-Dawley rats. Each was orally administered SRP-001 at a single dose of 220, 440, or 660 mg/kg. Vehicle (10% labrasol: 10% DMSO: 80% PEG400) was administered to an additional group of eight rats. The dose volume was 10 mL/kg. […] All observations were made at ±5 min for the observations through 1 h post-dose and ±15 min for the later observations. Body temperature was measured 1 h following dose administration.

Series [1] is described as follows: Stability of API and oral nanosuspension. Format: physicochemical. The method, then: (§1) The drug therapeutic candidate is manufactured in a two-step process (Latitude Pharmaceuticals, Inc., San Diego, CA USA). First, SRP-001 is jet milled. Second, the milled API is dispersed in a solution comprising 1% hydroxypropyl cellulose (1% HPC) and sterile water for injection and subjected to wet milling. The target particle size is approximately D90 0.15 μm. […] An oral nanoparticle suspension containing 100 mg/mL SRP-001 in aqueous 1% HPC preserved with 0.1% sodium benzoate was manufactured for use in nonclinical studies as Lot LPI2021028 and stored at 5° C.±3° C. […] The same formulation as above was manufactured under cGMP for use in clinical studies as Lot LPI2021031 and stored at 5° C.±3° C. […] This lot has been placed on stability at 5° C., 25° C./60% RH, and 40° C./75% RH. Finally, an appearance-matched placebo consisting of 2% microcrystalline cellulose in aqueous 1% HPC preserved with 0.1% sodium benzoate and 0.05% EDTA disodium dihydrate was manufactured under cGMP for use in clinical studies. The above oral suspensions were manufactured by Latitude Pharmaceuticals Inc. (San Diego, CA, USA).

Series [2] concerns Beagle dogs. Kind of series: 7-day repeat-dose oral toxicity study in Beagle dogs, Phase II (non-GLP). In kind it is in vivo, dog. On the procedure:
7) A Dose-Range-Finding and 7-day Repeat-Dose Oral Toxicity Study of SRP-001 in Beagle dogs (Non-GLP) In Phase II of this study, 0, 30, 100, or 300 mg/kg/d of SRP-001 was administered once daily for seven consecutive days to 1 Beagle dog/sex/dose (Calvert Labs/Altasciences, Scott Township, PA USA). Mortality/morbidity was observed twice daily and once prior to scheduled sacrifice. Clinical observations were evaluated prior to each dose administration and at approximately 1-3 h post-dose and once prior to scheduled sacrifice on day 8. Body weights were recorded on days 1 and 7, and a fasted body weight was recorded prior to scheduled sacrifice on day 8. Food consumption was recorded daily. Blood for evaluation of hematology, coagulation, and clinical chemistry parameters and urine for urinalysis was collected from all animals prior to treatment initiation and from all Phase II animals prior to scheduled sacrifice on day 8. Blood for toxicokinetic evaluation was collected at selected time points on days 1 and 7. Selected tissues were harvested and weighed at necropsy. No microscopic evaluations were performed. […] The clinical observations corroborated with findings of red discoloration in the duodenum of the control group female, the jejunum of the low-dose male, and the colon of both high-dose dogs.

For another series, the system named is Sprague-Dawley rats. Kind of series: CFA inflammatory pain / von Frey with electronic detection (eVF). In kind it is in vivo, rat. To be noted: behavioral assays.
For series [3], the system named is Beagle dogs. Description: Single oral dose (capsule) toxicity and pharmacokinetic study in Beagle dogs (non-GLP). In kind it is in vivo. On the procedure: 2) A Single Oral Dose Toxicity and Pharmacokinetic Study of SRP-001 in Beagle Dogs (non-GLP) SRP-001 was prepared into capsules for oral administration. Three experimentally non-naïve Beagle dogs, at least 7 months old and weighing 7.7 to 10 kg prior to treatment initiation, were administered a single dose of 300 mg/kg SRP-001 (Calvert Labs/Altasciences, Scott Township, PA USA). On the day of dosing, animals were observed prior to dose administration, approximately 1-3 h post-dose, and once on day 2. Body weights were recorded for all animals prior to dose administration for the preparation of the capsules. Blood for bioanalytical evaluation was collected at selected timepoints on day 1. Following the completion of the study, surviving animals were not euthanized. They were returned to the Calvert colony for an appropriate washout period before possible use in a subsequent study. […] Plasma samples were collected at seven different time points post-dose.

A short description of series [4]: Jet milling and nano-milling: particle size and solubility. Format: physicochemical. The method, then: In certain instances, a crystalline compound of Formula I is jet milled. Thereafter, the milled compound of Formula I is dispersed in a solution comprising 1% hydroxypropyl cellulose (1% HPC) and sterile water for injection and subjected to wet milling. The target particle size is approximately D90 0.15 μm. The disclosure provides using nanomilling and jet-milling techniques, to prepare an oral nanoparticle suspension containing 100 mg/mL SRP-001 in preserved aqueous 1% HPC. An oral nanoparticle suspension containing 100 mg/mL SRP-001 in aqueous 1% HPC preserved with 0.1% sodium benzoate was used.
as §1

“Also recorded” adds a separate entry of the source.

For `CCN(CC)C(=O)c1ccccc1S(=O)(=O)NCC(=O)Nc1ccc(O)cc1` [SRP-001, N,N-diethyl-2-[[2-(4-hydroxyanilino)-2-oxo-ethyl]sulfamoyl]benzamide], the “body temperature versus vehicle” value in the series on male Sprague-Dawley rats (660 mg/kg, 1 h post-dose) is “significantly (p≤0.05) lower; also recorded: lower body temperature”. The “neuropharmacological or clinical signs” value in the series with male Sprague-Dawley rats (220, 440 or 660 mg/kg oral, through 24 h post-dose) is listed as “No apparent neuropharmacological or clinical signs were observed”. Besides, the “API stable for” value is “at least 9 months” in series [1] (25° C./60% RH) and ≥ 6 months in series [1] (40° C./75% RH). Further, the clinical signs entry in the series on Beagle dogs [2] (30, 100, 300 mg/kg/d) was “loose or soft feces and emesis”. The tolerated dose in the series with Beagle dogs [2] (both, Beagle, dog, in vivo, 7 d) is listed as 300 mg/kg. Moreover, the “AUC and Cmax levels” value with Beagle dogs [2] (dog, in vivo) is on record as “increased in a dose-dependent manner, with day 1 levels higher than those from day 7”. Moreover, the “locomotor activity or motor incoordination” value with Sprague-Dawley rats is reported as “no overt alterations”. In addition, the tolerability entry in the series with Beagle dogs [3] (dog, in vivo, 300 mg/kg) is listed as “well tolerated”. Besides, in the series with Beagle dogs [3] (single 300 mg/kg, capsules), the bioavailability result is reported as “poor bioavailability”. Besides, the solubility entry in series [4] (after jet milling and nano-milling) is on record as “increase the solubility”. Moreover, the particle size is 0.1666 μm in series [4] (after jet milling and nano-milling for 17 h (FIG. 25A)); 879.33 μm in series [4] (before milling (FIG. 25B)).
